In ChEMBL document CHEMBL1201862, “PubChem BioAssay data set” (2004):
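In this assay, cells in 96-well plates receive the compound at five concentrations for 48 hours. Endpoints are linearly interpolated between the surrounding concentrations. The concentration for 50% growth inhibition is given as GI50.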 Activity calls are given as the source filed them. Cut-off read from the data, not from the text of the source: active = GI50 up to about 1.1 µM and inactive = higher.

Key:
Experiment in all cases: NCI anticancer screen, dose series, 48 h
CAKI-1 = tested on: CAKI-1
HOP-62 = tested on: HOP-62
SW-620 = tested on: SW-620
IGROV-1 = tested on: IGROV-1
OVCAR-4 = tested on: OVCAR-4
HT-29 = tested on: HT-29
A498 = tested on: A498
NCI-H226 = tested on: NCI-H226
HCT-15 = tested on: HCT-15
HOP-92 = tested on: HOP-92
UO-31 = tested on: UO-31
Hs-578T = tested on: Hs-578T
SNB-75 = tested on: SNB-75
UACC-257 = tested on: UACC-257
A549 = tested on: A549
SF-268 = tested on: SF-268
786-0 = tested on: 786-0
SF-295 = tested on: SF-295
UACC-62 = tested on: UACC-62
RXF 393 = tested on: RXF 393
MOLT-4 = tested on: MOLT-4
OVCAR-8 = tested on: OVCAR-8
SK-MEL-5 = tested on: SK-MEL-5
SK-OV-3 = tested on: SK-OV-3
HL-60 = tested on: HL-60
LOX IMVI = tested on: LOX IMVI
OVCAR-5 = tested on: OVCAR-5
K562 = tested on: K562
HCC 2998 = tested on: HCC 2998
Malme-3M = tested on: Malme-3M
MCF7 = tested on: MCF7
BT-549 = tested on: BT-549
OVCAR-3 = tested on: OVCAR-3
NCI-H460 = tested on: NCI-H460
NCI/ADR-RES = tested on: NCI/ADR-RES
MDA-MB-231 = tested on: MDA-MB-231
M14 = tested on: M14
SN12C = tested on: SN12C
MDA-MB-435 = tested on: MDA-MB-435
COLO 205 = tested on: COLO 205
EKVX = tested on: EKVX
NCI-H23 = tested on: NCI-H23
KM12 = tested on: KM12
MDA-N = tested on: MDA-N
NCI-H522 = tested on: NCI-H522
SK-MEL-2 = tested on: SK-MEL-2
SK-MEL-28 = tested on: SK-MEL-28
SR = tested on: SR
T47D = tested on: T47D
U-251 = tested on: U-251
ACHN = tested on: ACHN
CCRF-CEM = tested on: CCRF-CEM
DU-145 = tested on: DU-145
RPMI-8226 = tested on: RPMI-8226
HCT-116 = tested on: HCT-116
SNB-19 = tested on: SNB-19
SF-539 = tested on: SF-539
TK-10 = tested on: TK-10

Q: Which GI50 (CAKI-1) does the source give for `CN(C)C(=S)SCC(=O)Nc1ccccc1` here?
A: > 100 µM (inactive)

Q: And the GI50 (HOP-62)?
A: > 100 µM (inactive)

Q: What about the GI50 (SW-620) of the same molecule?
A: > 100 µM (inactive)

Q: And the GI50 (IGROV-1)?
A: > 100 µM (inactive)

Q: What about the GI50 (OVCAR-4) of the same molecule?
A: > 100 µM (inactive)

Q: And the GI50 (HT-29)?
A: > 100 µM (inactive)

Q: And the GI50 (A498)?
A: > 100 µM (inactive)

Q: And the GI50 (NCI-H226)?
A: > 100 µM (inactive)

Q: What about the GI50 (HCT-15) of the same molecule?
A: > 100 µM

Q: And the GI50 (HOP-92)?
A: > 100 µM (inactive)

Q: What about the GI50 (UO-31) of the same molecule?
A: > 100 µM (inactive)

Q: What about the GI50 (Hs-578T) of the same molecule?
A: > 100 µM (inactive)

Q: And the GI50 (SNB-75)?
A: > 100 µM (inactive)

Q: And the GI50 (UACC-257)?
A: > 100 µM (inactive)

Q: What about the GI50 (A549) of the same molecule?
A: > 100 µM (inactive)

Q: What about the GI50 (SF-268) of the same molecule?
A: > 100 µM (inactive)

Q: What about the GI50 (786-0) of the same molecule?
A: > 100 µM (inactive)

Q: What about the GI50 (SF-295) of the same molecule?
A: > 100 µM (inactive)

Q: And the GI50 (UACC-62)?
A: > 100 µM (inactive)

Q: What about the GI50 (RXF 393) of the same molecule?
A: > 100 µM (inactive)

Q: And the GI50 (MOLT-4)?
A: > 100 µM (inactive)

Q: What about the GI50 (OVCAR-8) of the same molecule?
A: > 100 µM (inactive)

Q: What about the GI50 (SK-MEL-5) of the same molecule?
A: > 100 µM (inactive)

Q: And the GI50 (SK-OV-3)?
A: > 100 µM (inactive)

Q: And the GI50 (HL-60)?
A: > 100 µM (inactive)

Q: What about the GI50 (LOX IMVI) of the same molecule?
A: > 100 µM (inactive)

Q: What about the GI50 (OVCAR-5) of the same molecule?
A: > 100 µM (inactive)

Q: And the GI50 (K562)?
A: > 100 µM (inactive)

Q: What about the GI50 (HCC 2998) of the same molecule?
A: > 100 µM (inactive)

Q: And the GI50 (Malme-3M)?
A: > 100 µM (inactive)

Q: What about the GI50 (MCF7) of the same molecule?
A: > 100 µM (inactive)

Q: What about the GI50 (BT-549) of the same molecule?
A: > 100 µM (inactive)

Q: And the GI50 (OVCAR-3)?
A: > 100 µM (inactive)

Q: What about the GI50 (NCI-H460) of the same molecule?
A: > 100 µM (inactive)

Q: What about the GI50 (NCI/ADR-RES) of the same molecule?
A: > 100 µM (inactive)

Q: And the GI50 (MDA-MB-231)?
A: > 100 µM (inactive)

Q: And the GI50 (M14)?
A: > 100 µM (inactive)

Q: What about the GI50 (SN12C) of the same molecule?
A: > 100 µM (inactive)

Q: And the GI50 (MDA-MB-435)?
A: > 100 µM (inactive)

Q: What about the GI50 (COLO 205) of the same molecule?
A: > 100 µM (inactive)

Q: What about the GI50 (EKVX) of the same molecule?
A: > 100 µM (inactive)

Q: And the GI50 (NCI-H23)?
A: > 100 µM (inactive)

Q: What about the GI50 (KM12) of the same molecule?
A: > 100 µM (inactive)

Q: What about the GI50 (MDA-N) of the same molecule?
A: > 100 µM (inactive)

Q: What about the GI50 (NCI-H522) of the same molecule?
A: 57.9 µM (inactive)

Q: What about the GI50 (SK-MEL-2) of the same molecule?
A: > 100 µM (inactive)

Q: What about the GI50 (SK-MEL-28) of the same molecule?
A: 80.4 µM (inactive)

Q: What about the GI50 (SR) of the same molecule?
A: > 100 µM (inactive)

Q: What about the GI50 (T47D) of the same molecule?
A: > 100 µM (inactive)

Q: And the GI50 (U-251)?
A: > 100 µM (inactive)

Q: What about the GI50 (ACHN) of the same molecule?
A: > 100 µM (inactive)

Q: What about the GI50 (CCRF-CEM) of the same molecule?
A: > 100 µM (inactive)

Q: And the GI50 (DU-145)?
A: > 100 µM (inactive)

Q: And the GI50 (RPMI-8226)?
A: 94.2 µM (inactive)

Q: And the GI50 (HCT-116)?
A: > 100 µM (inactive)

Q: With `Cc1ccc2[nH]c3[nH]c(=S)[nH]c(=O)c3c2c1` as the molecule, how does the GI50 (CAKI-1) read?
A: > 100 µM (inactive)

Q: And the GI50 (HOP-62)?
A: > 100 µM (inactive)

Q: What about the GI50 (SW-620) of the same molecule?
A: > 100 µM (inactive)

Q: And the GI50 (IGROV-1)?
A: > 100 µM (inactive)

Q: And the GI50 (HT-29)?
A: > 100 µM (inactive)

Q: And the GI50 (A498)?
A: > 100 µM (inactive)

Q: And the GI50 (NCI-H226)?
A: > 100 µM (inactive)

Q: And the GI50 (HCT-15)?
A: > 100 µM

Q: What about the GI50 (HOP-92) of the same molecule?
A: > 100 µM (inactive)

Q: And the GI50 (UO-31)?
A: > 100 µM (inactive)

Q: What about the GI50 (SNB-19) of the same molecule?
A: > 100 µM (inactive)

Q: And the GI50 (Hs-578T)?
A: > 100 µM (inactive)

Q: And the GI50 (SNB-75)?
A: 40 µM (inactive)

Q: And the GI50 (UACC-257)?
A: > 100 µM (inactive)

Q: What about the GI50 (A549) of the same molecule?
A: > 100 µM (inactive)

Q: What about the GI50 (SF-268) of the same molecule?
A: > 100 µM (inactive)

Q: What about the GI50 (786-0) of the same molecule?
A: > 100 µM (inactive)

Q: And the GI50 (SF-295)?
A: > 100 µM (inactive)

Q: What about the GI50 (UACC-62) of the same molecule?
A: > 100 µM (inactive)

Q: What about the GI50 (RXF 393) of the same molecule?
A: > 100 µM (inactive)

Q: What about the GI50 (MOLT-4) of the same molecule?
A: 97.5 µM (inactive)

Q: What about the GI50 (OVCAR-8) of the same molecule?
A: > 100 µM (inactive)

Q: What about the GI50 (SK-MEL-5) of the same molecule?
A: > 100 µM (inactive)

Q: What about the GI50 (SF-539) of the same molecule?
A: > 100 µM (inactive)

Q: And the GI50 (TK-10)?
A: > 100 µM (inactive)

Q: What about the GI50 (SK-OV-3) of the same molecule?
A: > 100 µM (inactive)

Q: And the GI50 (HL-60)?
A: > 100 µM (inactive)

Q: What about the GI50 (LOX IMVI) of the same molecule?
A: > 100 µM (inactive)

Q: What about the GI50 (OVCAR-5) of the same molecule?
A: > 100 µM (inactive)

Q: And the GI50 (K562)?
A: 96.4 µM (inactive)

Q: And the GI50 (HCC 2998)?
A: > 100 µM (inactive)

Q: What about the GI50 (Malme-3M) of the same molecule?
A: > 100 µM (inactive)

Q: What about the GI50 (MCF7) of the same molecule?
A: > 100 µM (inactive)

Q: What about the GI50 (BT-549) of the same molecule?
A: > 100 µM (inactive)

Q: And the GI50 (OVCAR-3)?
A: 72.9 µM (inactive)

Q: And the GI50 (NCI/ADR-RES)?
A: > 100 µM (inactive)

Q: What about the GI50 (MDA-MB-231) of the same molecule?
A: > 100 µM (inactive)

Q: What about the GI50 (M14) of the same molecule?
A: > 100 µM (inactive)

Q: And the GI50 (SN12C)?
A: > 100 µM (inactive)

Q: And the GI50 (MDA-MB-435)?
A: > 100 µM (inactive)

Q: And the GI50 (COLO 205)?
A: > 100 µM (inactive)

Q: And the GI50 (EKVX)?
A: > 100 µM (inactive)

Q: What about the GI50 (NCI-H23) of the same molecule?
A: > 100 µM (inactive)

Q: And the GI50 (KM12)?
A: > 100 µM (inactive)

Q: What about the GI50 (MDA-N) of the same molecule?
A: > 100 µM (inactive)

Q: And the GI50 (NCI-H522)?
A: > 100 µM (inactive)

Q: And the GI50 (SK-MEL-2)?
A: > 100 µM (inactive)

Q: What about the GI50 (SR) of the same molecule?
A: > 100 µM (inactive)

Q: And the GI50 (T47D)?
A: > 100 µM (inactive)

Q: And the GI50 (ACHN)?
A: > 100 µM (inactive)

Q: What about the GI50 (CCRF-CEM) of the same molecule?
A: > 100 µM (inactive)

Q: What about the GI50 (DU-145) of the same molecule?
A: > 100 µM (inactive)

Q: What about the GI50 (RPMI-8226) of the same molecule?
A: 72.8 µM (inactive)

Q: What about the GI50 (HCT-116) of the same molecule?
A: > 100 µM (inactive)
